Measurements: US9951058B2, “Compound, pharmaceutically acceptable salt or optical isomer thereof, method for preparing the same, and pharmaceutical composition for prevention or treatment of viral diseases containing same as active ingredient” (Korea Research Institute of Chemical Technology, priority 2012, dated 2018)
Values after ≈ are worked out from the molar mass of the structure shown.

Assays:
in vitro = conditions: human
HRV 14 = assay: Cytopathic effect (CPE) inhibition assay; format: cell-based, human rhinovirus; conditions: Human rhinovirus sp., HeLa, 72 h, host cell HeLa, 3 days, MEM/2% FBS, MTT assay; read-out: EC50 HRV 14
poliovirus 3 (PV3) = assay: microbe, parasite or virus in culture; format: cell-based; conditions: Enterovirus C, 72 h, read-out: EC50 PV3
HRV 21 = assay: Cytopathic effect (CPE) inhibition assay; format: cell-based, human rhinovirus; conditions: Human rhinovirus sp., 72 h; host cell HeLa, 3 days, MEM/2% FBS, MTT assay; read-out: EC50 HRV 21
[1] = test system: coxsackievirus B3 (Cox B3); assay: Multicycle cytopathic effect (CPE) reduction assay; format: cell-based; conditions: Enterovirus B, B3, 72 h, read-out: EC50 CoxB3
[2] = Cytotoxicity (CC50) in multicycle CPE reduction assay, MTS; conditions: human
HRV 71 = assay: Cytopathic effect (CPE) inhibition assay; format: cell-based, human rhinovirus; conditions: Human rhinovirus sp., 72 h; host cell HeLa, 3 days, MEM/2% FBS, MTT assay; read-out: EC50 HRV 71
[3] = test system: coxsackievirus B1 (Cox B1); assay: Multicycle cytopathic effect (CPE) reduction assay; format: cell-based; conditions: Enterovirus B, B1, 72 h, read-out: EC50 CoxB1

| Compound | CC50 (in vitro) | EC50 (HRV 14) | EC50 (poliovirus 3 (PV3)) | EC50 (HRV 21) | EC50 [1] | CC50 at 3 days [2] | EC50 (HRV 71) | EC50 [3] |
| --- | --- | --- | --- | --- | --- | --- | --- | --- |
| CCCNC(=O)OC12C(=O)c3ccccc3C1(O)Oc1cc(C(C)C)ccc12 (centres unmarked) [Example 18, 4b-hydroxy-7-isopropyl-10-oxo-4b, 10-dihydro-9bH-indeno[1,2-b]benzofuran-9b-yl propyl carbamate] | > 10 µg/mL | > 10 µg/mL | > 10 µg/mL | > 10 µg/mL | < 10 µg/mL | > 10 µg/mL | > 10 µg/mL | < 10 µg/mL |
| CC(=O)C(=O)NC12C(=O)c3cccc([N+](=O)[O-])c3C1(O)Oc1cc(C(C)C)ccc12 (centres unmarked) [Example 19, N-(4b-hydroxy-7-isopropyl-4-nitro-10-oxo-4b, 10-dihydro-9bH-indeno[1,2-b]benzofuran-9b-yl)-2-oxo propanamide] | > 10 µg/mL | < 10 µg/mL | < 10 µg/mL | > 10 µg/mL | < 1 µg/mL | > 10 µg/mL | > 10 µg/mL | < 1 µg/mL |
| Cc1cccc(C)c1NC(=O)C(=O)NC12C(=O)c3ccccc3C1(O)Oc1cc(C(C)C)ccc12 (centres unmarked) [Example 20, N1-(2,6-dimethylphenyl)-N2-(4b-hydroxy-7-isopropyl-10-oxo-4b, 10-dihydro-9bH-indeno[1,2-b]benzofuran-9b-yl)oxal amide] | > 10 µg/mL | < 10 µg/mL | < 10 µg/mL | > 10 µg/mL | < 0.1 µg/mL | > 10 µg/mL | > 10 µg/mL | < 0.1 µg/mL |
| CC(C)c1ccc2c(c1)OC1(O)c3ccccc3C(=O)C21NC(=O)C(=O)N(C)C (centres unmarked) [Example 21, N1-(4b-hydroxy-7-isopropyl-10-oxo-4b, 10-dihydro-9bH-indeno[1,2-b]benzofuran-9b-yl)-N2, N2-dimethyl oxal amide] | > 10 µg/mL | < 1 µg/mL | < 10 µg/mL | > 10 µg/mL | < 0.1 µg/mL | > 10 µg/mL | > 10 µg/mL | < 0.1 µg/mL |
| CC(=O)C(=O)NC12C(=O)c3c(N)cccc3C1(O)Oc1cc(C(C)C)ccc12 (centres unmarked) [Example 22, N-(1-amino-4b-hydroxy-7-isopropyl-10-oxo-4b, 10-dihydro-9bH-indeno[1,2-b]benzofuran-9b-yl)-2-oxo propanamide] | > 10 µg/mL | < 0.01 µg/mL | < 0.1 µg/mL | < 10 µg/mL | < 0.01 µg/mL | > 10 µg/mL | 8.5 µg/mL (≈ 22.3 µM) | < 0.01 µg/mL |
| COc1cc(C(=O)C(=O)NC23C(=O)c4ccccc4C2(O)Oc2cc(C(C)C)ccc23)cc(OC)c1OC (centres unmarked) [Example 23, N-(4b-hydroxy-7-isopropyl-10-oxo-4b, 10-dihydro-9bH-indeno[1,2-b]benzofuran-9b-yl)-2-oxo-2-(3,4,5-trimethoxyphenyl)acetamide] | > 10 µg/mL | < 10 µg/mL | < 10 µg/mL | > 10 µg/mL | < 0.1 µg/mL | > 10 µg/mL | > 10 µg/mL | < 0.1 µg/mL |
| COc1ccc(/C=C/C(=O)C(=O)NC23C(=O)c4ccccc4C2(O)Oc2cc(C(C)C)ccc23)cc1OC (centres unmarked) [Example 24, (E)-4-(3,4-dimethoxyphenyl)-N-(4b-hydroxy-7-isopropyl-10-oxo-4b, 10-dihydro-9bH-indeno[1,2-b]benzofuran-9b-yl)-2-oxobut-3-enamide] | > 10 µg/mL | < 10 µg/mL | < 10 µg/mL | > 10 µg/mL | < 0.1 µg/mL | > 10 µg/mL | > 10 µg/mL | < 0.1 µg/mL |
| Cc1cccc(C)c1NC(=O)C(=O)NC12C(=O)c3cccc([N+](=O)[O-])c3C1(O)Oc1cc(C(C)C)ccc12 (centres unmarked) [Example 26, N1-(2,6-dimethylphenyl)-N2-(4b-hydroxy-7-isopropyl-4-nitro-10-oxo-4b, 10-dihydro-9bH-indeno[1,2-b]benzofuran-9b-yl)oxal amide] | > 10 µg/mL | < 10 µg/mL | > 10 µg/mL | > 10 µg/mL | < 10 µg/mL | > 10 µg/mL | > 10 µg/mL | < 10 µg/mL |
| CNC(=O)C(=O)NC12C(=O)c3ccccc3C1(O)Oc1cc(C(C)C)ccc12 (centres unmarked) [Example 27, N1-(4b-hydroxy-7-isopropyl-10-oxo-4b, 10-dihydro-9bH-indeno[1,2-b]benzofuran-9b-yl)-N2-methyl oxal amide] | > 10 µg/mL | < 1 µg/mL | < 10 µg/mL | > 10 µg/mL | < 0.1 µg/mL | > 10 µg/mL | > 10 µg/mL | < 0.1 µg/mL |
| CCC(C)C(=O)C(=O)NC12C(=O)c3cccc([N+](=O)[O-])c3C1(O)Oc1cc(C(C)C)ccc12 (centres unmarked) [Example 28, N-(4b-hydroxy-7-isopropyl-4-nitro-10-oxo-4b, 10-dihydro-9bH-indeno[1,2-b]benzofuran-9b-yl)-3 methyl-2-oxo pentanamide] | > 10 µg/mL | < 10 µg/mL | > 10 µg/mL | > 10 µg/mL | < 10 µg/mL | > 10 µg/mL | > 10 µg/mL | < 1 µg/mL |
| CCC(C)C(=O)C(=O)NC12C(=O)c3ccccc3C1(O)Oc1cc(C(C)C)ccc12 (centres unmarked) [Example 29, N-(4b-hydroxy-7-isopryl-10-oxo-4b, 10-dihydro-9bH-indeno[1,2-b]benzofuran-9b-yl)-3-methyl-2-oxo pentanamide] | > 10 µg/mL | < 1 µg/mL | < 1 µg/mL | > 10 µg/mL | < 0.1 µg/mL | > 10 µg/mL | > 10 µg/mL | < 0.1 µg/mL |
| CC(C)c1ccc2c(c1)OC1(O)c3c(cccc3[N+](=O)[O-])C(=O)C21NC(=O)C(=O)N(C)C (centres unmarked) [Example 30, N1-(4b-hydroxy-7-isopropyl-4-nitro-10-oxo-4b, 10-dihydro-9bH-indeno[1,2-b]benzofuran-9b-yl)-N2-N2-dimethyl oxal amide] | > 10 µg/mL | > 10 µg/mL | > 10 µg/mL | > 10 µg/mL | < 10 µg/mL | > 10 µg/mL | > 10 µg/mL | < 10 µg/mL |
| CC(C)c1ccc2c(c1)OC1(O)c3cccc(N)c3C(=O)C21NC(=O)C(=O)N(C)C (centres unmarked) [Example 31, N1-(1-amino-4b-hydroxy-7-isopropyl-10-oxo-4b, 10-dihydro-9bH-indeno[1,2-b]benzofuran-9b-yl)-N2, N2-dimethyl oxal amide] | > 10 µg/mL | 0.012 µg/mL (≈ 0.0293 µM) | < 0.1 µg/mL | < 10 µg/mL | < 0.01 µg/mL | > 10 µg/mL | 73 µg/mL (≈ 178 µM) | < 0.01 µg/mL |
| CCOC(=O)C(=O)NC12C(=O)c3ccccc3C1(O)Oc1cc(C(C)C)ccc12 (centres unmarked) [Example 32, Ethyl 2-((4b-hydroxy-7-isopropyl-10-oxo-4b, 10-dihydro-9bH-indeno[1,2-b]benzofuran-9b-yl)amino)-2-oxo acetate] | > 10 µg/mL | < 1 µg/mL | < 10 µg/mL | > 10 µg/mL | < 1 µg/mL | > 10 µg/mL | > 10 µg/mL | < 0.1 µg/mL |
| CCOC(=O)C(=O)NC12C(=O)c3cccc([N+](=O)[O-])c3C1(O)Oc1cc(C(C)C)ccc12 (centres unmarked) [Example 33, Ethyl 2-((4b-hydroxy-7-isopropyl-4-nitro-10-oxo-4b, 10-dihydro-9bH-indeno[1,2-b]benzofuran-9b-yl)amino)-2-oxo acetate] | > 10 µg/mL | > 10 µg/mL | > 10 µg/mL | > 10 µg/mL | < 10 µg/mL | > 10 µg/mL | > 10 µg/mL | < 10 µg/mL |
| CCCC(=O)C(=O)NC12C(=O)c3cccc([N+](=O)[O-])c3C1(O)Oc1cc(C(C)C)ccc12 (centres unmarked) [Example 34, N-(4b-hydroxy-7-isopropyl-4-nitro-10-oxo-4b, 10-dihydro-9bH-indeno[1,2-b]benzofuran-9b-yl)-2-oxo pentanamide] | > 10 µg/mL | < 10 µg/mL | < 10 µg/mL | > 10 µg/mL | < 10 µg/mL | > 10 µg/mL | > 10 µg/mL | < 1 µg/mL |
| CCCCCCC(=O)C(=O)NC12C(=O)c3cccc([N+](=O)[O-])c3C1(O)Oc1cc(C(C)C)ccc12 (centres unmarked) [Example 35, N-(4b-hydroxy-7-isopropyl-4-nitro-10-oxo-4b, 10-dihydro-9bH-indeno[1,2-b]benzofuran-9b-yl)-2-oxo octanamide] | > 10 µg/mL | < 10 µg/mL | < 10 µg/mL | > 10 µg/mL | < 1 µg/mL | > 10 µg/mL | > 10 µg/mL | < 1 µg/mL |
| CCOC(=O)C(=O)NC12C(=O)c3c(N)cccc3C1(O)Oc1cc(C(C)C)ccc12 (centres unmarked) [Example 36, Ethyl 2-((1-amino-4b-hydroxy-7-isopropyl-10-oxo-4b, 10-dihydro-9bH-indeno[1,2-b]benzofuran-9b-yl)amino)-2-oxo acetate] | > 10 µg/mL | < 1 µg/mL | < 10 µg/mL | > 10 µg/mL | < 0.1 µg/mL | > 10 µg/mL | > 10 µg/mL | < 0.1 µg/mL |
| CC(C)c1ccc2c(c1)OC1(O)c3ccccc3C(=O)C21NC(=O)C(=O)C(C)(C)C (centres unmarked) [Example 37, N-(4b-hydroxy-7-isopropyl-10-oxo-4b, 10-dihydro-9bH-indeno[1,2-b]benzofuran-9b-yl)-3,3-dimethyl-2-oxo butanamide] | > 10 µg/mL | < 0.1 µg/mL | < 10 µg/mL | > 10 µg/mL | < 0.1 µg/mL | > 10 µg/mL | > 10 µg/mL | < 0.1 µg/mL |
